In patent US20230181673A1, “TRI-PEPTIDES AND TREATMENT OF METABOLIC, CARDIOVASCULAR AND INFLAMMATORY DISORDERS” (Diapin Therapeutics, LLC, priority 2018, published 2023):
Non-standard residues stand in square brackets, D forms with d. No end group written: not given here.

Legend:
ABCG8 = assay: Western blot of hepatic ABCG8 in WD-fed apoE−/− mice; format: in vivo; settings: normalized to β-Actin
Source text: (§1) Eight-week-old male apolipoprotein E-deficient (apoE−/−) mice (B6.129P2-Apoetm1Unc/J, Stock No.: 002052) were obtained from Jackson Laboratories. Mice were fed Western diet (WD, 42% of calories from fat and 0.2% cholesterol by weight, Envigo TD.88137). After one week of WD feeding, blood was carefully collected from the facial vein to determine baseline plasma levels of total cholesterol (TC). […] All mice were maintained on a 12-hour light/dark cycle and had ad libitum access to food and water. Body weight and food intake were measured every one and three weeks, respectively
The following primary antibodies were used: rabbit polyclonal anti-ABCG8 (Santa Cruz Biotechnology, sc-30111, working dilution 1:1000) and rabbit polyclonal anti-β-Actin (Cell signaling, 4967S, working dilution 1:3000). After TBST washing, membranes were incubated with secondary antibodies (LI-COR Biotechnology, donkey anti-rabbit IRDye 926-32213, 926-88073, working dilution 1:10000) for 1 hour at room temperature.

atherosclerotic lesions = assay: Analysis of atherosclerotic lesions (Oil Red O, en face aorta) in WD-fed apoE−/− mice; format: in vivo; settings: apoE−/− mice on WD, 12 weeks; vs WD+H2O
Source text: as §1
After collection of blood, the mice were perfused with 20 mL of saline solution through the heart, followed by 20 mL of 37% formalin. The mice were fixed with formalin and the whole aortic tree was dissected under a surgical microscope. Next, the aortic trees were stained with Oil Red O solution (0.2% Oil Red O (w/v) in 3.5:1 of methanol:1N NaOH) for 50 min, followed by 70% ethanol for 30 min. Aortic trees were then kept in DDW. The aortic trees were then cleared of adhering adipose and connective tissues, and longitudinally opened with Vannas scissors to expose the atherosclerotic lesions. Images of whole aortic trees were obtained using a digital camera, and the percentage of the plaque area stained by Oil Red O with respect to the total luminal surface area was quantified with ImageJ analysis software (http://imagej.nih.gov/ij/).

[1] = tested on: plasma lipids, adipokines and cytokines; assay: Plasma lipids, adipokines and cytokines in WD-fed apoE−/− mice; format: in vivo; settings: for Time-dependent increase in plasma TC (baseline to endpoint): 1 week WD baseline vs 12 weeks of treatment; for Endpoint plasma HDL / Endpoint plasma LDL, reduced by / Endpoint plasma TC, reduced by: 6 hour fast; for Endpoint plasma HDL / Endpoint plasma LDL, reduced by / Endpoint plasma TC, reduced by / Plasma levels of glycine-containing tripeptide molecule, lower by: vs WD+H2O; for Plasma levels of glycine-containing tripeptide molecule, lower by: 12 weeks, glycine 0.67, DT-109/DT-110 1 mg/g; for Plasma HDL (lipid profile): endpoint (FIG. 15I); for Plasma glycine-containing tripeptide molecule: endpoint (FIG. 15K)
Source text: as §1
Plasma levels of glycine tripeptide molecule, resistin, interleukin-6 (IL-6) and monocyte chemoattractant protein-1 (MCP1) were measured with a Luminex 200 chemistry analyzer (Luminex Corporation) at the Chemistry Laboratory of the MDRC using manufacturer-provided assay reagents and protocols (Millipore Multiplex, MMHMAG-44K). […]

hepatic gene expression = format: in vivo, mice; settings: NASH-diet, liver
Experimental: Total RNA from mouse liver samples was extracted using QIAGEN's RNeasy kits (QIAGEN). RNA was reverse-transcribed into cDNA with SuperScript III and random primers (Invitrogen). Specific transcript levels were assessed by a real-time PCR system (Bio-Rad) using IQ SYBR Green Supermix (Bio-Rad) and the ΔΔCt threshold cycle method of normalization. Gene expression levels were normalized to glycerldehyde 3-phosphate dehydrogenase (GAPDH).
(§2) Mice fed CD and administered H2O served as control.

liver transcriptome = format: in vivo, mice; settings: for TGFβ signaling and ECM remodeling pathways/genes (RNA-sequencing) / Pro-inflammatory signaling regulator and cytokine genes (NFKB1/2, RELB, CCR1/2/5, TLR1/2/4, TNFRSF1A/9/12, TNFα, CCL2/5) / Key genes regulating FAO (PPARα, PGC1α, ACOX1, CPT2, ACADS/M/L, HADHA/B, ACOT3/4): NASH-diet; for TGFβ signaling and ECM remodeling pathways/genes (RNA-sequencing): liver; for Pro-inflammatory signaling regulator and cytokine genes (NFKB1/2, RELB, CCR1/2/5, TLR1/2/4, TNFRSF1A/9/12, TNFα, CCL2/5) / Key genes regulating FAO (PPARα, PGC1α, ACOX1, CPT2, ACADS/M/L, HADHA/B, ACOT3/4): RNA-sequencing; for Key genes regulating FAO (PPARα, PGC1α, ACOX1, CPT2, ACADS/M/L, HADHA/B, ACOT3/4): confirmed by qPCR and Western blot
Experimental: Library preparation and sequencing were performed by the U-M DNA Sequencing Core on a NovaSeq 6000 Sequencing System (Illumina). RNA-sequencing and pathway analyses were performed as described.
Total RNA from mouse liver samples was extracted as described above. Library preparation and sequencing were performed by the University of Michigan DNA Sequencing Core. RNA was assessed for quality using the TapeStation (Agilent, Santa Clara, Calif.). […] Samples were prepped using the NEBNext Ultra II Directional RNA Library Prep Kit for Illumina (NEB, E7760L) with Poly(A) mRNA Magnetic Isolation Module (NEB, E7490L) and NEBNext Multiplex Oligos for Illumina Unique dual (NEB, E6440L), where 10 ng-1 μg of total RNA were subjected to mRNA polyA purification. The mRNA was then fragmented and copied into first strand cDNA using reverse transciptase and dUTP mix. Samples underwent end repair and dA-Tailing step followed by ligation of NEBNext adapters. The products were purified and enriched by PCR to create the final cDNA library. Final libraries were checked for quality and quantity by TapeStation (Agilent) and qPCR using Kapa's library quantification kit for Illumina Sequencing platforms (Kapa Biosystems, KK4835). Libraries were paired-end sequenced on a […] Sequencing System (Illumina).
The quality of the raw Fastq files was checked through FastQC v0.11.8 (https://www.bioinformaties.babraham.ac.uk/projects/fastqc/). Trimmomatic v.0.35 was used to trim the low-quality reads with the parameters: SLIDINGWINDOW:4:20 MINLEN:25.12 The resulted high-quality reads were then mapped to the mouse reference genome (GRCm38.90) using HISAT2 v.2.1.0.13 Gene level quantification was performed using HTSeq-counts v0.6.0 based on the GRCm38.90 genome annotations.14 The R package DESeq2 was then used to identify significant differentially expressed genes. 15 We considered genes with adjusted P value less than 0.05 and absolute fold change larger than 2 as significant differentially expressed genes (DEGs). […] 16 The significance of the enrichment was determined by right-tailed Fisher's exact test followed by Benjamini-Hochberg multiple testing adjustment.
as §2

Compound | ABCG8 protein in liver (Western blot) (ABCG8) | Total atherosclerotic plaques (en face aortic lesions, Oil Red O), reduction by (atherosclerotic lesions) | Time-dependent increase in plasma TC (baseline to endpoint) [1] | Endpoint plasma HDL [1] | Endpoint plasma LDL, reduced by [1] [%] | Endpoint plasma TC, reduced by [1] [%] | Plasma levels of glycine-containing tripeptide molecule, lower by ([1]; apoE−/− mice on WD) [%] | Plasma TC and LDL (lipid profile) ([1]; apoE−/− mice on WD, DT-109 1 mg/g/day, endpoint) | Plasma HDL (lipid profile) ([1]; apoE−/− mice on WD) | Plasma glycine-containing tripeptide molecule ([1]; apoE−/− mice on WD) | Plasma MCP1 levels ([1]; endpoint) | NFKB2, RELB and TNFα expression (qPCR) (hepatic gene expression) | TGFβ-related genes (qPCR) (hepatic gene expression) | CCL2, CCR2 and CCR5 expression (qPCR) (hepatic gene expression; 0.5 mg/g/day DT-109) | Pathway analysis, NASH-diet H2O control vs treatment (liver transcriptome; DT-109 0.5 mg/g/day) | TGFβ signaling and ECM remodeling pathways/genes (RNA-sequencing) (liver transcriptome) | Pro-inflammatory signaling regulator and cytokine genes (NFKB1/2, RELB, CCR1/2/5, TLR1/2/4, TNFRSF1A/9/12, TNFα, CCL2/5) (liver transcriptome) | Key genes regulating FAO (PPARα, PGC1α, ACOX1, CPT2, ACADS/M/L, HADHA/B, ACOT3/4) (liver transcriptome)
Gly-Gly-Leu [DT-109] | Overexpression | 62% | significantly attenuated | preserved | 38 | 25 | 62 | lowest TC and LDL | without the reduction in HDL | reduced | significantly reduced | significantly downregulated | attenuated | downregulated | reversed NASH-diet-induced alterations in underlying pathways | attenuated | attenuated | reversed
Gly-Gly-[dL] [DT-110] | Overexpression | 49% | – | – | – | – | 56 | – | – | – | significantly reduced | – | – | – | – | – | – | –
NCC(=O)O [glycine, reference compound] | Overexpression | 48% | significantly attenuated | 35% | 30 | 19 | 53 | – | reduction in HDL | reduced | significantly reduced | significantly downregulated | – | – | – | attenuated | attenuated | reversed
CC(C)C[C@H](N)C(=O)O [leucine] | – | but not in mice treated with leucine | – | – | – | – | – | – | – | – | – | – | markedly upregulated | – | – | – | upregulated | suppressed
